Data: article PMC7663597, “Structure–Activity Relationship of Aloperine Derivatives as New Anti–Liver Fibrogenic Agents” (Molecules, 2020)
Structures can show the parent of a compound that is named as a salt. Marks after values point to notes of the source that are not given here.

Assays:
COL1A1 promotor = COL1A1 promotor luciferase reporter gene assay in TGF-β1-treated LX-2 cells; type: cell-based, human; details: for inhibition at 40 µM / inhibition at 80 µM: Homo sapiens, LX-2, 24 h; for inhibition at 40 µM: 24 h with TGF-β1, read-out: Inhibition Percentage 40 μM (inhibition rate of COL1A1 promotor's activity); for inhibition at 80 µM: 24 h with TGF-β1, read-out: Inhibition Percentage 80 μM (inhibition rate of COL1A1 promotor's activity)
Protocol: A single luciferase reporter gene detection model was applied to evaluate the inhibitory effects of all target compounds on the expression of COL1A1 promotor in human hepatic stellate LX-2 cells at the concentrations of 40 and 80 μM, taking EGCG as the positive control. The LX-2 cell lines were transfected with COL1A1 promotor luciferase plasmid pGL4.17-COL1A1P for 24 h, then simultaneously treated with TGF-β1 and a tested compound for 24 h.
Cells were maintained on Dulbecco’s Modified Eagle’s medium (DMEM), laid on 96-well plate. DMEM medium was supplemented with 10% fetal bovine serum (FBS) at 37 °C humidified atmosphere with 5% CO2. Furthermore, serum-free culture was required until the cells were confluent at 90−95%. 24 h later the cells were treated with a tested compound (40 and 80 μM) for 24 h. The COL1A1 promotor activity was detected by the Bright-Glo luciferase assay system. Alternatively, to test the acute effects of compound on luciferase activity, 24 h later the cells were lysed and the lysate was treated with a tested compound (80 μM) for 2 h, then the luciferase was detected by the Bright-Glo luciferase assay system (Promega, Madison, WI, USA).

Compound	melting point [°C]	inhibition at 40 µM (COL1A1 promotor) [%]	inhibition at 80 µM (COL1A1 promotor) [%]	Inhibition Percentage (inhibition rate of COL1A1 promotor's activity) (COL1A1 promotor; at the concentration of 25 μM (positive control))
O=C(CN1CCCC2=C[C@H]3C[C@H](CN4CCCC[C@H]34)[C@@H]21)Nc1cccc(OC(F)(F)F)c1 [4g, 12N-N′-(m-Trifluoromethoxyphenyl)carbamoylmethyl aloperine]	50 to 52	67.8 ± 14.9	95.5 ± 5.5	–
COC(=O)c1ccc(C)c(NC(=O)CN2CCCC3=C[C@H]4C[C@H](CN5CCCC[C@H]45)[C@@H]32)c1 [4j, 12N-N′-(2-Methyl-5-methoxycarbonylphenyl)carbamoylmethyl aloperine]	75 to 77	3.8 ± 6.1	32.4 ± 2.7	–
O=C(CN1CCCC2=C[C@H]3C[C@H](CN4CCCC[C@H]34)[C@@H]21)NC1CCOCC1 (as salt: hydrochloride) [4b, 12N-N′-(Tetrahydro-2H-pyran-4-yl)carbamoylmethyl aloperine hydrochloride]	199 to 201	–	–	–
O=C(O[C@@H]1Cc2c(O)cc(O)cc2O[C@@H]1c1cc(O)c(O)c(O)c1)c1cc(O)c(O)c(O)c1 [EGCG, reference compound]	–	–	–	27.5 ± 7.9^e %
O=C(CN1CCCC2=C[C@H]3C[C@H](CN4CCCC[C@H]34)[C@@H]21)NC1CCOCC1 [4b, 12N-N′-(Tetrahydro-2H-pyran-4-yl)carbamoylmethyl aloperine hydrochloride]	–	19 ± 3.8	29.8 ± 10	–
O=C(CN1CCCC2=C[C@H]3C[C@H](CN4CCCC[C@H]34)[C@@H]21)NC12CC3CC(CC(C3)C1)C2 [4c, 12N-N′-Adamantylcarbamoylmethyl aloperine]	176 to 178	23.7 ± 7.7	39.2 ± 1.2	–
O=C(CN1CCCC2=C[C@H]3C[C@H](CN4CCCC[C@H]34)[C@@H]21)Nc1ccccc1 [4d, 12N-N′-Phenylcarbamoylmethyl aloperine]	66 to 68	18.6 ± 8.6	28.3 ± 2.8	–
O=C(CN1CCCC2=C[C@H]3C[C@H](CN4CCCC[C@H]34)[C@@H]21)Nc1cccc2ncccc12 [4l, 12N-N′-(5-Quinolyl)carbamoylmethyl aloperine]	74 to 76	31.5 ± 2.6	22.4 ± 16.1	–
O=C(CN1CCCC2=C[C@H]3C[C@H](CN4CCCC[C@H]34)[C@@H]21)Nc1ccc(F)cc1 [4e, 12N-N′-(4-Fluorophenyl)carbamoylmethyl aloperine]	119 to 121	21.4 ± 1.5	26.5 ± 0.5	–
C1=C2CCCN[C@H]2[C@@H]2C[C@H]1[C@H]1CCCCN1C2 [compound 1, Aloperine]	–	4.7 ± 3.7	2.6 ± 5.2	–
CCNC(=O)CN1CCCC2=C[C@H]3C[C@H](CN4CCCC[C@H]34)[C@@H]21 [4a, 12N-N′-Ethylcarbamoylmethyl aloperine]	69 to 71	7.1 ± 25.6	33.1 ± 1.6	–
Cc1cccc(NC(=O)CN2CCCC3=C[C@H]4C[C@H](CN5CCCC[C@H]45)[C@@H]32)c1 [4f, 12N-N′-(3-Methylphenyl)carbamoylmethyl aloperine]	40 to 42	21.2 ± 0.4	33.8 ± 8	–
Cc1cc(NC(=O)CN2CCCC3=C[C@H]4C[C@H](CN5CCCC[C@H]45)[C@@H]32)cc(C)c1C [4k, 12N-N′-(3,4,5-Trimethylphenyl)carbamoylmethyl aloperine]	183 to 185	50.1 ± 6.9	70.7 ± 1.5	–

Now from value to compound, other results behind:

melting point [°C]	Compound	inhibition at 40 µM (COL1A1 promotor) [%]	inhibition at 80 µM (COL1A1 promotor) [%]	Inhibition Percentage (inhibition rate of COL1A1 promotor's activity) (COL1A1 promotor; at the concentration of 25 μM (positive control))
98 to 100	CCCCS(=O)(=O)NCC(=O)N1CCCC2=C[C@H]3C[C@H](CN4CCCC[C@H]34)[C@@H]21 [10b, 12N-N′-n-Butylsulfonylaminoacetyl aloperine]	41.1 ± 9.6	23.7 ± 22.7	–
79 to 81	O=C(CN1CCCC2=C[C@H]3C[C@H](CN4CCCC[C@H]34)[C@@H]21)NS(=O)(=O)c1ccc(Br)c(C(F)(F)F)c1 [7c, 12N-N′-(4-Bromo-3-trifluoromethylbenzenesulfonyl)carbamoylmethyl aloperine]	32.9 ± 3.4	31.8 ± 3.1	–
105 to 107	O=C(CN1CCCC2=C[C@H]3C[C@H](CN4CCCC[C@H]34)[C@@H]21)NS(=O)(=O)c1cccc(C(F)(F)F)c1 [7b, 12N-N′-3-Trifluoromethylbenzenesulfonyl carbamoylmethyl aloperine]	23.5 ± 13.5	20.2 ± 1.9	–
78 to 80	O=C(CN1CCCC2=C[C@H]3C[C@H](CN4CCCC[C@H]34)[C@@H]21)N1CCCC1 [4o, 12N-N′-(1-Pyrrolidinyl)carbamoylmethyl aloperine]	16.5 ± 9.8	36.7 ± 9.9	–
113 to 115	O=C(CN1CCCC2=C[C@H]3C[C@H](CN4CCCC[C@H]34)[C@@H]21)NS(=O)(=O)c1ccccc1 [7a, 12N-N′-Benzenesulfonyl carbamoylmethyl aloperine]	21.5 ± 4.3	17.1 ± 6.3	–
63 to 65	O=C(CNS(=O)(=O)c1ccccc1)N1CCCC2=C[C@H]3C[C@H](CN4CCCC[C@H]34)[C@@H]21 [10c, 12N-N′-Benzenesulfonylaminoacetylaloperine]	23.7 ± 8.3	20.2 ± 6.4	–
145 to 147	CCS(=O)(=O)NCC(=O)N1CCCC2=C[C@H]3C[C@H](CN4CCCC[C@H]34)[C@@H]21 [10a, 12N-N′-Ethylsulfonylaminoacetyl aloperine]	34 ± 7	34.9 ± 14.7	–
73 to 75	CN(C(=O)CN1CCCC2=C[C@H]3C[C@H](CN4CCCC[C@H]34)[C@@H]21)c1ccccc1 [4m]	19.9 ± 5.2	34.6 ± 2.5	–
81 to 83	O=C(CNS(=O)(=O)c1cccc(OC(F)(F)F)c1)N1CCCC2=C[C@H]3C[C@H](CN4CCCC[C@H]34)[C@@H]21 [10f, 12N-N′-m-Trifluoromethoxybenzenesulfonylaminoacetyl aloperine]	43.4 ± 15.9	41.4 ± 7.4	–
101 to 103	O=C(CNS(=O)(=O)c1cccc(Br)c1)N1CCCC2=C[C@H]3C[C@H](CN4CCCC[C@H]34)[C@@H]21 [10d, 12N-N′-m-Bromobenzenesulfonylaminoacetyl aloperine]	28.5 ± 12.3	27.1 ± 10.1	–
91 to 93	O=C(CNS(=O)(=O)c1cccc(C(F)(F)F)c1)N1CCCC2=C[C@H]3C[C@H](CN4CCCC[C@H]34)[C@@H]21 [10e, 12N-N′-m-Trifluoromethylbenzenesulfonylaminoacetyl aloperine]	29.7 ± 5.1	26.7 ± 21.3	–
93 to 95	O=C(CN1CCCC2=C[C@H]3C[C@H](CN4CCCC[C@H]34)[C@@H]21)NS(=O)(=O)c1ccc2ccccc2c1 [7d]	18.8 ± 5.2	9.4 ± 3.7	–
